Assay [1] addresses T1, recombinant human LTA4 hydrolase (rhLTA4H) (Homo sapiens, UniProt P09960).
T1 construct: made in house; host or cells: Spodoptera frugiperda (Sf-9) cells, recombinant baculovirus (pFastBac1)
T1 sequence (P09960 1-611): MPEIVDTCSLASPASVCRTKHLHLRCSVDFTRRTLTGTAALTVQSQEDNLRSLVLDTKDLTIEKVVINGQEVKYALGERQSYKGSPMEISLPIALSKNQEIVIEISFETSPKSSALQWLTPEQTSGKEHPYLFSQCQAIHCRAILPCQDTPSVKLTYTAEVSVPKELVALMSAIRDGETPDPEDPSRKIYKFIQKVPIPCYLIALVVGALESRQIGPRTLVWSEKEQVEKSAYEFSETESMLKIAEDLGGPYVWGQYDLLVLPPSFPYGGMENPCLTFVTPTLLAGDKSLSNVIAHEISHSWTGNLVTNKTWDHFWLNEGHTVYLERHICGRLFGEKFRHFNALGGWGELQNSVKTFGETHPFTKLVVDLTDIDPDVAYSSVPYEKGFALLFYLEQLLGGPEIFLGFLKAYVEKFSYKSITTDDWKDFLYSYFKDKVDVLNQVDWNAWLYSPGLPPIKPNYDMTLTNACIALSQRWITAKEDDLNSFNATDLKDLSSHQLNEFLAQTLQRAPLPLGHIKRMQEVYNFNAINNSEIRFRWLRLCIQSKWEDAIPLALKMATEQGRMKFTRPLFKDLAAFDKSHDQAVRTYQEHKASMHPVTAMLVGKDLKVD
In words: Recombinant human LTA4 hydrolase assay for LTA4 hydrolase inhibitor activity. Format: biochemical. To be noted: rhLTA4H, LTA4 substrate, LTB4 by immunoassay; single determination or average; read-out: IC50. The essentials: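 LTB4 formed from LTA4 substrate (free acid from the methyl ester) was quantified by enzyme immunoassay after a 30 min rt reaction. Enzyme was 10 ng Sf-9-expressed human LTA4 hydrolase, pre-incubated 10 min with compound.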

For assay [2], the system named is LTB4 production by calcium ionophore-stimulated murine blood. In words: LTB4 production by calcium ionophore-stimulated murine blood for LTA4H inhibitor activity. To be noted: Mus musculus; murine blood diluted 1 in 15, calcium ionophore A23187, LTB4 by immunoassay; read-out: IC50. Format: cell-based, CD-1 mice. As to the method: Assay 2: LTB4 Production by Calcium Ionophore-Stimulated Murine Blood for LTA4H Inhibitor Activity
CD-1 mice were sacrificed, and blood was collected in heparin-containing syringes by cardiac puncture. […] After the microtiter plate contents were incubated for 15 min at 37° C. in a humidified incubator, calcium ionophore A23187 (Sigma Chemical Co., St. Louis, Mo.) was added to each sample well (final concentration=7 μg/mL). The incubation was continued under the same conditions for an additional 30 min to allow LTB4 formation. The reaction was terminated by centrifugation (833×g, 10 min at 4° C.), and supernatants were analyzed for LTB4 by a commercially available enzyme-linked immunoassay (Cayman Chemical Co.) according to the manufacturer's instructions. Positive controls, under essentially identical conditions but without addition of an inhibitor compound, and negative unstimulated controls, containing all assay components except calcium ionophore, were routinely run in each experiment. […] The values presented here are the result of a single determination or an average of two or more determinations, as indicated in parentheses following each value. For compounds tested three or more times, the average value is followed by the standard deviation

As to `c1ccc(CC2CCN(CCOc3ccc(Oc4nc5ncccc5s4)cc3)CC2)cc1` [Example 28, 2-{4-[2-(4-Benzylpiperidin-1-yl)ethoxy]phenoxy}[1,3]thiazolo[4,5-b]pyridine], the IC50 in assay [1] was found to be 52 nM; in assay [2] it was 380 nM.

For the compound `CC(=O)N1[C@@H]2CC[C@H]1C[C@@H](NCc1ccc(Oc3nc4ncccc4s3)cc1)C2` [Example 169, meso-(3-endo)-8-Acetyl-N-{[4-([1,3]thiazolo[4,5-b]pyridin-2-yloxy)phenyl]methyl}-8-azabicyclo[3.2.1]octan-3-amine], the IC50 in assay [1] is 18 nM; in assay [2], 54 nM.

On to `FC(F)(F)C1CCN(Cc2ccc(Oc3nc4ncccc4s3)cc2)CC1` [Example 92, 2-(4-{[4-(Trifluoromethyl)piperidin-1-yl]methyl}phenoxy)[1,3]thiazolo[4,5-b]pyridine], for which the half-maximal inhibitory concentration (IC50) in assay [1] worked out at 4 nM; in assay [2], 67 nM.

Take `c1ccc(OC2CCN(CCOc3ccc(Oc4nc5ncccc5s4)cc3)CC2)nc1` [Example 12, 2-(4-{2-[4-(Pyridin-2-yloxy)piperidin-1-yl]ethoxy}phenoxy)[1,3]thiazolo[4,5-b]pyridine]: the IC50 in assay [1] stood at 11 nM; in assay [2], 160 nM.

`CC(=O)N1[C@@H]2CC[C@H]1C[C@@H](NCCOc1ccc(Oc3nc4ncccc4s3)cc1)C2` [Example 159, meso-(3-endo)-8-acetyl-N-{2-[4-([1,3]thiazolo[4,5-b]pyridin-2-yloxy)phenoxy]ethyl}-8-azabicyclo[3.2.1]octan-3-amine]: the values for the IC50 in assay [1] and in assay [2] were 9 nM and 82 nM, respectively.

For the compound `OC1(c2ccccn2)CCN(CCOc2ccc(Oc3nc4ncccc4s3)cc2)CC1` [Example 5, 4-Pyridin-2-yl-1-{2-[4-([1,3]thiazolo[4,5-b]pyridin-2-yloxy)phenoxy]ethyl}piperidin-4-ol], the results for the IC50 in assay [1] and in assay [2] were 14 nM and 140 nM, respectively.

On to `c1cnc2nc(Oc3ccc(CN4CCC(Oc5ccncc5)CC4)cc3)sc2c1` [Example 262, 2-(4-{[4-(Pyridin-4-yloxy)piperidin-1-yl]methyl}phenoxy)[1,3]thiazolo[4,5-b]pyridine], for which the IC50 in assay [1] worked out at 3 nM; in assay [2] it was 97 nM.

For the compound `OC1(c2ccccc2)CCN(CCOc2ccc(Oc3nc4cccnc4s3)cc2)CC1` [Example 40, 4-Phenyl-1-{2-[4-([1,3]thiazolo[5,4-b]pyridin-2-yloxy)phenoxy]ethyl}piperidin-4-ol], the concentration for half-maximal inhibition (IC50) in assay [1] came out at 99 nM; in assay [2], 950 nM.

Consider `c1ccc(SC2CCN(CCOc3ccc(Oc4nc5ncccc5s4)cc3)CC2)nc1` [Example 291, 2-(4-{2-[4-(Pyridin-2-ylsulfanyl)piperidin-1-yl]ethoxy}phenoxy)[1,3]thiazolo[4,5-b]pyridine], for which the IC50 in assay [1] stood at 82 nM; in assay [2], 280 nM.

Take `c1ccc(C2CCN(CCc3ccc(Oc4nc5ncccc5s4)cc3)CC2)nc1` [Example 48, 2-{4-[2-(4-Pyridin-2-ylpiperidin-1-yl)ethyl]phenoxy}[1,3]thiazolo[4,5-b]pyridine]: the figures for the half-maximal inhibitory concentration (IC50) in assay [1] and in assay [2] were 15 nM and 100 nM, respectively.

In the case of `COc1ccccc1N1CCN(CCOc2ccc(Oc3nc4ncccc4s3)cc2)CC1` [Example 135, 2-(4-{2-[4-(2-Methoxyphenyl)piperazin-1-yl]ethoxy}phenoxy)[1,3]thiazolo[4,5-b]pyridine], the figures for the IC50 in assay [1] and in assay [2] were 72 nM and 88 nM, respectively.

`NC(=O)N[C@@H]1C[C@H]2CC[C@@H](C1)N2Cc1ccc(Oc2nc3ncccc3s2)cc1` [Example 110, meso-1-{(3-exo)-8-[4-([1,3]Thiazolo[4,5-b]pyridin-2-yloxy)benzyl]-8-azabicyclo[3.2.1]oct-3-yl}urea]: the half-maximal inhibitory concentration (IC50) in assay [1] stood at 1 nM; in assay [2], 1440 nM.

For the compound `CN(CCOc1ccc(Oc2nc3ncccc3s2)cc1)Cc1ccccc1` [Example 36, N-Benzyl-N-methyl-2-[4-([1,3]thiazolo[4,5-b]pyridin-2-yloxy)phenoxy]ethanamine], the IC50 amounted to 3 nM in assay [1] and 51 nM in assay [2].

On to `FC1(F)CCN(Cc2ccc(Oc3nc4ncccc4s3)cc2)C1` [Example 93, 2-{4-[(3,3-Difluoropyrrolidin-1-yl)methyl]phenoxy}[1,3]thiazolo[4,5-b]pyridine], for which the values for the IC50 in assay [1] and in assay [2] were 55 nM and 520 nM, respectively.

With `c1ccc(C2CCN(CCOc3ccc(Oc4nc5ncccc5s4)cc3)CC2)nc1` [Example 34, 2-{4-[2-(4-Pyridin-2-ylpiperidin-1-yl)ethoxy]phenoxy}[1,3]thiazolo[4,5-b]pyridine], the IC50 in assay [1] amounted to 19 nM; in assay [2] it was 140 nM.

As to `O=C(O)C1CCN(Cc2ccc(Oc3nc4ncccc4s3)cc2)CC1` [Example 131, 1-[4-([1,3]Thiazolo[4,5-b]pyridin-2-yloxy)benzyl]piperidine-4-carboxylic acid], the IC50 stood at 7.8 nM in assay [1] and 1070 nM in assay [2].

With `CC(=O)N1CCC2(CCN(Cc3ccc(Oc4nc5ncccc5s4)cc3)CC2)CC1` [Example 295, 3-Acetyl-9-[4-([1,3]thiazolo[4,5-b]pyridin-2-yloxy)benzyl]-3,9-diazaspiro[5.5]undecane], the IC50 amounted to 6 nM in assay [1] and 15 nM in assay [2].

With `CC(=O)N1C[C@@H]2C[C@H]1CN2Cc1ccc(Oc2nc3cccnc3s2)cc1` [Example 124, 2-(4-{[(1S,4S)-5-Acetyl-2,5-diazabicyclo[2.2.1]hept-2-yl]methyl}phenoxy)[1,3]thiazolo[5,4-b]pyridine], the IC50 in assay [1] was 220 nM; in assay [2], 700 nM.

As for `c1ccc2c(c1)CCN(CCOc1ccc(Oc3nc4ncccc4s3)cc1)C2` [Example 6, 2-{2-[4-([1,3]Thiazolo[4,5-b]pyridin-2-yloxy)phenoxy]ethyl}-1,2,3,4-tetrahydroisoquinoline], the IC50 in assay [1] came to 9 nM; in assay [2], 64 nM.

Take `OC1(c2ccc(Cl)cc2)CCN(Cc2ccc(Oc3nc4ncccc4s3)cc2)CC1` [Example 104, 4-(4-Chlorophenyl)-1-[4-([1,3]thiazolo[4,5-b]pyridin-2-yloxy)benzyl]piperidin-4-ol]: the concentration for half-maximal inhibition (IC50) was found to be 1.9 nM in assay [1] and 28 nM in assay [2].

On to `CC(=O)N[C@H]1C[C@H]2CC[C@@H](C1)N2CCOc1ccc(Oc2nc3nccnc3s2)cc1` [Example 148, meso-N-[(3-endo)-8-{2-[4-([1,3]Thiazolo[4,5-b]pyrazin-2-yloxy)phenoxy]ethyl}-8-azabicyclo[3.2.1]oct-3-yl]acetamide], for which the values for the IC50 in assay [1] and in assay [2] were 43 nM and 36 nM, respectively.

For `OC1(c2ccccc2)CCN(CCOc2ccc(Oc3nc4nccnc4s3)cc2)CC1` [Example 22, 4-Phenyl-1-{2-[4-([1,3]thiazolo[4,5-b]pyrazin-2-yloxy)phenoxy]ethyl}piperidin-4-ol], the IC50 stood at 62 nM in assay [1] and 200 nM in assay [2].

As for `CS(=O)(=O)NC1CCN(CCOc2ccc(Oc3nc4ncccc4s3)cc2)CC1` [Example 163, N-[1-(2-{[4-([1,3]Thiazolo[4,5-b]pyridin-2-yloxy)phenyl]oxy}ethyl)piperidin-4-yl]methanesulfonamide], the 50% inhibitory concentration (IC50) in assay [1] turned out to be 6 nM; in assay [2], 31 nM.

For the compound `CC(=O)N[C@H]1C[C@H]2CC[C@@H](C1)N2Cc1ccc(Oc2nc3cnccc3s2)cc1` [Example 134, meso-N-{(3-endo)-8-[4-([1,3]Thiazolo[4,5-c]pyridin-2-yloxy)benzyl]-8-azabicyclo[3.2.1]oct-3-yl}acetamide], the IC50 in assay [1] was determined as 38 nM; in assay [2], 180 nM.

For the compound `OC1(c2ccccn2)CCN(Cc2ccc(Oc3nc4ncccc4s3)cc2)CC1` [Example 101, 4-Pyridin-2-yl-1-[4-([1,3]thiazolo[4,5-b]pyridin-2-yloxy)benzyl]piperidin-4-ol], the IC50 in assay [1] was determined as 11 nM; in assay [2], 3 nM.

In the case of `c1cnc2sc(Oc3ccc(OCCN4CCC(c5ccncc5)CC4)cc3)nc2c1` [Example 42, 2-{4-[2-(4-Pyridin-4-ylpiperidin-1-yl)ethoxy]phenoxy}[1,3]thiazolo[5,4-b]pyridine], the IC50 in assay [1] came to 83 nM; in assay [2] it was 580 nM.

By IC50 is commonly meant the point on the concentration scale where inhibition reaches its midpoint.

For the origin of these results see patent publication US20110190503A1, “Thiazolopyridin-2-yloxy-phenyl and thiazolopyrazin-2-yloxy-phenyl amines as modulators of leukotriene A4 hydrolase” (Janssen Pharmaceutical NV, priority 2008, published 2011).
